From patent US9732059B2, “Methods of use of cyclic amide derivatives to treat schizophrenia” (Minerva Neurosciences, Inc., priority 2010, dated 2017)
“Also recorded” adds a separate entry of the source.

Experiments:
[1] = tested on: patients with DSM-IV schizophrenia; assay: Phase 2 clinical study: safety (extrapyramidal symptoms, adverse events, QT interval); type: in vivo, human
Description: (§1) The study was designed to test the therapeutic efficacy of the compound of formula II on all dimensions of schizophrenic disease (E.g., positive, negative, and general symptoms, cognition, sleep, mood and anxiety). The study also examined the safety of the administered doses of the compound of formula II (also referred to herein as CYR-101), including heart repolarization (i.e., QT interval), weight change, adverse events, prolactin, and extrapyramidal symptoms).
(§2) CYR-101 8 mg oral sustained release (SR) tablet, oral administration of 1, 2, or 4 tablets (8, 16 or 32 mg of CYR-101) was administered twice daily in fed condition. During the dose adjustment period, CYR-101 was administered orally, twice a day in the morning and in the evening, at the daily dose of 16 mg for two days, then titrated up every two days to 32 mg and 64 mg respectively. During the fixed-dose period, the optimal adjusted dose evaluated for each patient or the maximum daily dose of 64 mg of CYR-101 was administered. In one aspect of the study, the dosage of compound was titrated up to 32 mg b.i.d.
4. Safety: 12-lead ECG, adverse event (AE) recording, vital signs, physical examination, weight and waist circumference, safety lab tests, evaluation of extra-pyramidal symptoms (measured by Simpson and Angus scale), and prolactin levels.
3. Safety: Descriptive statistics on the safety set for extent of exposure, adverse events recording, safety lab tests, 12-lead ECG parameters, vital signs, and physical examination, weight and waist circumference, extra-pyramidal symptoms, prolactin levels.

schizophrenic patients = assay: Polysomnographic (PSG) sleep recording in a sub-group of patients; type: in vivo, human
Source text: 3. Exploratory: In a sub-group of patients, polysomnographic sleep continuity and sleep architecture parameters.
2. Secondary efficacy variables: Same method for the PANSS total and sub-scores at three months of treatment, BACS, DAI-10, MADRS, HAMA, and PSQI on the Full Analysis Set (FAS). Last Observation Carried Forward (LOCF) procedure used for missing data imputation. Analysis of variance (ANOVA) for the Readiness for Discharge Questionnaire (RDQ) at 14 days. Wilcoxon rank sum test for CGI-S. Descriptive statistics and graphical presentation on changes from baseline on FAS. Efficacy analyses (ANCOVA) additionally performed on the Per Protocol Set. Supportive exploratory analysis on PANSS using longitudinal, likelihood-based, mixed-effect model on FAS without missing data imputation. On a subtest of patients, polysomnographic (PSG) recording parameters analyzed using descriptive statistics and ANCOVA on changes from baseline.
Polysomnographic recordings took place in a sub-group of patients. Sleep was recorded from 11:00 pm to 7:00 am on D-1 after a habituation night (baseline condition) and on D14. Analyses regarding sleep continuity, stage distribution, and stage profile parameters were exploratory. The treatment differences on each of these sleep parameters were analyzed using D14 values with ANOVAs and ANCOVAs with country and treatment as main effects and baseline as covariate.
Among the 33 patients who had performed a PSG recording at visit lead-in day-1, 19 received placebo and 14 received the study treatment. Among these, […] experienced technical problem and/or insomnia during baseline and/or treatment night and were therefore excluded from the analysis. Finally, 20 patients were included in the analysis set of ANOVA and 19 patients were included in the analysis set of ANCOVA, and according to the SAP, only ANCOVA results were taken into account and are further discussed in the next sections.

[2] = tested on: patients with DSM-IV schizophrenia; assay: Phase 2 double-blind, randomized, placebo-controlled proof of concept study: efficacy scales (PANSS, CGI-S, DAI-10, PSQI, BACS, MADRS, HAMA); type: in vivo, human
Description: A study was conducted using the compound of formula II, to examine the efficacy on schizophrenia and treatment of symptoms of schizophrenia. The study was a multi-center, inpatient and ambulatory, phase 2, double-blind, randomized, placebo-controlled proof of concept study of the compound of formula II in patients with DSM-IV schizophrenia. The study used 21 centers across three different countries.
as §1
The study was conducted for a time period of three months.
The objectives of the study included the following: • 1. Evaluate the efficacy versus placebo of CYR-101 on global PANSS score and sub-scores after one month (28 days+/− 2 days) of treatment • 2. […] Evaluate the efficacy versus placebo of CYR-101 as assessed by the CGI-S after one and three months of treatment • 4. Evaluate subjective efficacy in patients of CYR-101 versus placebo as assessed by the Drug Attitude Inventory-10 (DAI-10) after one and three months of treatment • 5. Evaluate subjective sleep quality as assessed by Pittsburgh Sleep Quality Index (PSQI) after three month of treatment • 6. Explore the efficacy versus placebo of CYR-101 on cognitive function as measured by BACS (Brief Assessment of Cognition in Schizophrenia) scale after one and three months of treatment • 7. Evaluate the efficacy versus placebo of CYR-101 in depressive symptoms as measure by the Montgomery-Asberg Depression Rating Scale (MADRS) total score after one month of treatment • 8. Evaluate the efficacy versus placebo of CYR-101 in anxiety as measured by the Hamilton Anxiety Scale (HAMA) total score after one month of treatment • 9. Assess cardio-vascular safety (particularly ventricular repolarisation as assessed by QT/QTc interval measurements) of CYR-101 compared with placebo • 10. Assess the global safety and tolerability of CYR-101 compared with placebo • 11. Determine the pharmacokinetics of CYR-101 in schizophrenic patients
as §2
During the lead-in period, oral administration of 1 placebo SR tablet was conducted twice a day for 3 days. During the dose adjustment and fixed-dose periods, oral administration of 1, 2, or 4 placebo SR tablets was used twice daily as performed for the test product.
The resulting data was analyzed one of three ways: 1.) Safety set; 2.) Full analysis set, with each patient having at least one PANSS evaluation after treatment initiation included in the efficacy analysis. The LOCF method is used; and 3.) Per protocol set, where for certain analyses, all patients having completed three months of treatment are included. ANCOVA followed by a contrast analysis at each time point were applied and in some cases, a non-parametric Wilcoxon test was used.
1. Primary: PANSS total score and sub-scores, after one month of treatment
2. […]

5-HT2A = 5-HT2A (Homo sapiens, UniProt P28223); conditions: known: dual 5-HT2A/sigma 2; cited from earlier work
dopamine = conditions: known; cited from earlier work
sigma 2 receptor = sigma 2 receptor (Homo sapiens, UniProt Q5BJF2); conditions: cited from earlier work
[3] = D14, ANCOVA contrast, not statistically significant
[4] = D14, ANCOVA, no significant treatment effect
[5] = D14, not statistically significant

Sequence of 5-HT2A (P28223 whole entry, species assumed): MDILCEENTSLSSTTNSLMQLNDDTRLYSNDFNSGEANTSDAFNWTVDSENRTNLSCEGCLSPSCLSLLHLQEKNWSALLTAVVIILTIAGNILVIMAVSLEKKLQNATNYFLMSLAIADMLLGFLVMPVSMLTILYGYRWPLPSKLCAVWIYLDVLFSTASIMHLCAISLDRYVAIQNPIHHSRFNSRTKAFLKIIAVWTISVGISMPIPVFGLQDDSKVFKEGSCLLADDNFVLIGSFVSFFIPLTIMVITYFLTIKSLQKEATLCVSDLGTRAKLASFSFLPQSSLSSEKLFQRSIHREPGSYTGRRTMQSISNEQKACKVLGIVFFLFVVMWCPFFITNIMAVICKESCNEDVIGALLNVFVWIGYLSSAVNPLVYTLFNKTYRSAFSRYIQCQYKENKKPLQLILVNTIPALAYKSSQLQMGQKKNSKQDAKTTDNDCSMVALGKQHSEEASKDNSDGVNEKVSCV
Sequence of sigma 2 receptor (Q5BJF2 whole entry, species assumed): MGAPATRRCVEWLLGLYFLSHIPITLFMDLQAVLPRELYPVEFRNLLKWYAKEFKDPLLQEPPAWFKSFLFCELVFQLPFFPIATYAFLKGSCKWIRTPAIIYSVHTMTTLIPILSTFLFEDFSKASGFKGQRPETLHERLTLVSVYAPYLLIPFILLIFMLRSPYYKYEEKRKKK

O=C(CN1CCC(CN2Cc3ccccc3C2=O)CC1)c1ccc(F)cc1 [CYR-101, 2-[[1-[2-(4-Fluorophenyl)-2-oxoethyl]piperidin-4-yl]methyl]isoindolin-1-one]
Increase in the QT interval ([1]; doses up to 32 mg b.i.d., stable over time, limits e.g. 10-15 milliseconds or less): did not cross clinically acceptable limits | Emergence or worsening of extrapyramidal symptoms, CYR-101 vs placebo ([1]; human, in vivo): no significant difference | Number of SAE in the active treatment group ([1]; unlikely related to CYR-101 based on the patient history): one | Decrease of sleep efficiency index (SEI) compared to placebo (schizophrenic patients; [3]): 2.4% | Decrease of total sleep time (TST) compared to placebo (schizophrenic patients; [3]): 13.7 min | Increase of duration of wake after sleep onset (WASO) compared to placebo (schizophrenic patients; [3]): 26.6 min | Latency to persistent sleep (schizophrenic patients; [4]): trend of improvement | Sleep onset latency (schizophrenic patients; [4]): trend of improvement | REM sleep latency contrast (schizophrenic patients; D14, non significant): appeared later | SWS latency contrast (schizophrenic patients; D14, non significant): appeared sooner | Decrease of REM sleep in SPT2 and in SPT3 (schizophrenic patients; [5]): 3.03% | Increase of REM sleep in the first third of SPT (REM_SPT1) (schizophrenic patients; [5]): 1.4% | Slow Wave Sleep (SWS) compared to placebo (schizophrenic patients; [5]): increased | Stage 1 (ST1) compared to placebo (schizophrenic patients; [5]): decreased | Stage 2 (ST2 in min) compared to placebo (schizophrenic patients; [5]): decreased | Total Time Awake (TTA) compared to placebo (schizophrenic patients; [5]): increased | nonREM sleep (NREM) compared to placebo (schizophrenic patients; [5]): increased | Decrease of SWS during the last third of SPT (SWS-SPT3) compared to placebo (schizophrenic patients; D14, p<0.05): 22.1% | Increase of SWS in the first third of SPT (SWS-SPT1) compared to placebo (schizophrenic patients; D14, p<0.05): 23.6% | REM sleep (REM) compared to placebo (schizophrenic patients; D14, significant only for REM-TST (p<0.05)): decreased | PANSS general psychopathology sub-score, treatment difference vs placebo ([2]; D28, FAS): no treatment difference | PANSS positive sub-score, treatment difference vs placebo ([2]; D28, FAS): no treatment difference | PANSS total score, change from baseline, treatment difference vs placebo ([2]; D28, FAS): no treatment difference | PANSS negative sub-score decrease ([2]; D28, FAS, p<0.01): −1.9 | PANSS general psychopathology sub-score, treatment difference vs placebo ([2]; D28, PPC): no treatment difference | PANSS positive sub-score, treatment difference vs placebo ([2]; D28, PPC): no treatment difference | PANSS total score, treatment difference vs placebo ([2]; D28, PPC): no treatment difference | PANSS negative sub-score decrease ([2]; D28, PPC, p<0.0010): −4.7 | PANSS general psychopathology sub-score, treatment difference vs placebo ([2]; D84, FAS): no significant treatment difference | PANSS positive sub-score, treatment difference vs placebo ([2]; D84, FAS): no significant treatment difference | PANSS total score, change from baseline, treatment difference vs placebo ([2]; D84, FAS): no significant treatment difference | PANSS negative sub-score point estimate decrease ([2]; D84, FAS, p<0.01): −2.3 | PANSS total score vs placebo ([2]; D84, PPC, obvious switch on D56): favorable trend of CYR-101 over placebo | PANSS negative sub-score improvement ([2]; D84, PPC, p<0.001, treatment difference vs placebo p=0.0581): −5.8 | PANSS positive sub-score vs placebo ([2]; D84, PPC, switch between D56 and D70): favorable trend of CYR-101 over placebo | PANSS general psychopathology sub-score vs placebo ([2]; D84, PPC, switch on D70): favorable trend of CYR-101 over placebo | Cognitive performances assessed by BACS vs placebo ([2]; FAS): no differences between the placebo group and the CYR-101 group, except for the Token motor task | MADRS Total change score, difference vs placebo ([2]; FAS and PPC, D28 and D84, reduction in both groups): not statistically significant | CGI-S score, difference between CYR-101 and placebo ([2]; FAS, D28 and D84): no significant difference | HAMA total score change from baseline ([2]; FAS, D28 and D84, non statistically significant): slight HAMA total score reduction | HAMA total score reduction ([2]; PPC, D28, p=0.2920): −1.0 | BACS Token motor task, list learning task, verbal fluency vs placebo ([2]; PPC, D84, descriptive data, not statistically significant): slight difference in favor of CYR-101 group; also recorded: slight difference in favour of CYR-101 group | HAMA total score reduction ([2]; PPC, D84, p=0.0642): −2.9 | CGI-S mean difference score ([2]; PPC, from D56 until D84): non significant but an interesting switch in favor of CYR-101 | Improvement of negative symptoms, onset ([2]; course of treatment): observed immediately | Improvement of positive symptoms, onset ([2]; course of treatment): did not improve until after the first four weeks of treatment | Duration of improvement in both positive and negative symptoms ([2]; in vivo): continued for more than twelve weeks | Effect on cognition in schizophrenic patients ([2]; in vivo): positive effect on cognition | DAI-10 total score change from baseline, difference between groups ([2]; to D28 and D84, FAS and PPC): no statistically significant difference | Mode of action at 5-HT2A (5-HT2A): antagonist | Dopamine binding properties (dopamine): devoid of dopamine binding properties | Receptor binding selectivity (sigma 2 receptor): sigma 2-selective receptor binding
